Measurements as given in US20250011311A1, “AMIDO HETEROAROMATIC COMPOUNDS” (AstraZeneca AB, priority 2022, published 2025).

What was measured:
[1] = target: recombinant 17bHSD13 (N2-K300) (Homo sapiens (Human), UniProt Q7Z5P4); assay: In Vitro 17bHSD13 Enzyme Assay; type: biochemical; settings: 80 nM 17bHSD13, 0.5 mM NAD, 20 μM Estradiol, 2.5 h; estradiol to estrone by LC-MS/MS
Procedure, shortened: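 Human 17bHSD13 (N2-K300, 80 nM) with 0.5 mM NAD, 20 μM estradiol and varied compound in 50 mM Tris-Cl pH 7.4, 5 mM EDTA, 0.01% DDM. Estrone/(estrone+estradiol) ratio read by LC-MS/MS (APCI, positive MRM). Inhibition normalised to DMSO and a known-inhibitor control; IC50 from curve fit.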

[2] = target: recombinant 17bHSD4 (M1-N311) (Homo sapiens (Human), UniProt P51659); assay: In Vitro 17bHSD4 Enzyme Assay; type: biochemical; settings: 40 nM 17bHSD4, 0.125 mM NAD, 15 μM Estradiol, 1.5 h; NADH fluorescence; read-out: 17HSD17b4 Enzyme assay IC50
[3] = target: over expressed HSD17β13 in HEK293S cells (Homo sapiens (Human), UniProt Q7Z5P4); assay: In Vitro 17bHSD13 Cell Assay; type: cell-based; settings: HEK293S cells over expressing HSD17β13; estradiol to estrone conversion, 18 h, LC-MS/MS; read-out: 17bHSD1713 Cell assay IC50
Procedure, shortened: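 HEK293S cells overexpressing HSD17β13 convert estradiol to estrone; product read by LC-MS/MS (APCI, positive MRM) as AUC ratio estrone/(estrone+estradiol). Effect normalised between DMSO and maximal inhibition by a known inhibitor control; IC50 from curve fit.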

[4] = test system: human hepatocytes; assay: Assay A: Metabolic Stability in Human Hepatocytes; type: in vitro ADME; settings: cryopreserved human hepatocytes, 10^6 viable cells/mL, 1 μM compound, 37° C.
Procedure: Assay A: Metabolic Stability in Human Hepatocytes
Hepatocyte metabolic stability was determined in accordance with the method described by Jacobson et al., An optimized automated assay for determination of metabolic stability using hepatocytes: assay validation, variance component analysis, and in vivo relevance. Assay Drug Dev Technol 2007, 5 (3), 403-415. DOI: 10.1089/adt.2007.059, which is incorporated herein by reference. Cryopreserved hepatocytes at a concentration of 10^6 viable cells/mL were used. After thawing, hepatocytes were incubated for 10 min to warm to 37° C. and test compounds, dissolved in acetonitrile, were added to give a final concentration of 1 μM. At 0.5, 5, 15, 30, 45, 60, 80, 100 and 120 min, the incubation system was mixed and 20 μL aliquots were transferred at each time point to wells in a separate plate filled with 80 μL MeCN to stop the reaction. The quenching plate was then vortexed followed by centrifugation, and supernatants were analyzed by LC-MS/MS. Peak areas were determined from extracted ion chromatograms, and the in vitro intrinsic clearance (in vitro CLint, in μL/min/10^6 cells) of parent compound was calculated from the slope in the regression analysis of the natural logarithm of parent concentration vs time curve.

[5] = target: human CB1 receptor expressed in transfected CHO cells (Homo sapiens (Human), UniProt P21554); assay: Assay C: CB1 Agonism Assay; type: cell-based; settings: agonist activity, cAMP HTRF, read-out: Assay C: CB1 Hu CHO cAMP TRF Ag CR GMean EC50
Procedure: Assay C: CB1 Agonism Assay
Evaluation of the agonist activity of compounds at the human CB1 receptor expressed in transfected CHO cells, determined by measuring their effects on cAMP modulation using the HTRF detection method.
Thereafter, the adenylyl cyclase activator NKH 477 is added at a final concentration of 3 μM. Following 20 min incubation at 37° C., the cells are lysed and the fluorescence acceptor (D2-labeled cAMP) and fluorescence donor (anti-cAMP antibody labeled with europium cryptate) are added. After 60 min at room temperature, the fluorescence transfer is measured at gex=337 nm and gem=620 and 665 nm using a microplate reader (RUBYSTAR, BMG). The cAMP concentration is determined by dividing the signal measured at 665 nm by that measured at 620 nm (ratio). The results are expressed as a percent of the control response to 30 nM CP 55940. The standard reference agonist is CP 55940, which is tested in each experiment at several concentrations to generate a concentration-response curve from which its EC50 value is calculated.
Bibliographic reference Felder, C. C. et al., (1995), Comparison of the pharmacology and signal transduction of the human cannabinoid CB1 and CB2 receptors, Mol. Pharmacol., 48: 443, which is incorporated herein by reference.

[6] = target: CYP2C9 (Homo sapiens (Human), UniProt P11712); assay: Assay B: Cytochrome P450 Inhibition 2C9
Chain of CYP2C9 (P11712 whole entry): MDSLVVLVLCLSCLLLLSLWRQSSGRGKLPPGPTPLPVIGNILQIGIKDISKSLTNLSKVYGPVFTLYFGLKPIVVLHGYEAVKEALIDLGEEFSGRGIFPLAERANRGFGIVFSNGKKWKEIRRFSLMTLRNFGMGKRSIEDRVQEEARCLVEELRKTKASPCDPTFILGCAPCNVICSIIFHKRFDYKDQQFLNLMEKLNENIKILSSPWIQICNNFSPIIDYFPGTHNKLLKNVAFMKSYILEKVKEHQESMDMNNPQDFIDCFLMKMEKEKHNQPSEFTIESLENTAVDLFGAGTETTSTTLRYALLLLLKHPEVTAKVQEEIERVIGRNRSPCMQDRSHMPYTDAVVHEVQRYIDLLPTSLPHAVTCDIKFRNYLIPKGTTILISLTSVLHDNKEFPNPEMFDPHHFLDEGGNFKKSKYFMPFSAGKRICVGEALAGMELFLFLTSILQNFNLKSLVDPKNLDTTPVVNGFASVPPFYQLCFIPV
Procedure: A fluorescence-based method in 96-well format was used to determine the inhibition of 2C9 (Crespi, C. L. et al., Microtiter plate assays for inhibition of human, drug-metabolizing cytochromes P450. Anal Biochem 1997, 248 (1), 188-190. DOI: 10.1006/abio.1997.2145, which is incorporated herein by reference). The recombinant human enzymes used were prepared in house, except for CYP2D6 (CYPEX LTD, Dundee, UK). Different coumarin substrates, biotransformed into fluorescent metabolites, were used as probes for each individual CYP. A fluorescence plate reader (SPECTRAMAX GEMINIXS, MOLECULAR DEVICES, Sunnyvale, California, USA) was used to measure the levels of metabolites formed. A dilution series of the test substrates was prepared at eight different concentrations. For each CYP, a mixture of the enzyme, corresponding coumarin substrate, potassium phosphate buffer pH 7.4 and water (concentrations and volumes were CYP-dependent) were added to each well in a black 96-well plate. The test substrates at different concentrations were added. After 10 min pre-incubation, the co-factor NADPH was added to initiate the reaction. After 20-50 min (CYP and substrate-dependent) the reaction was terminated by addition of trisbase/MeCN (20:80). The plates were transferred to the fluorescence plate reader where the wavelengths were set individually for the different coumarin substrates and their respective fluorescent metabolite. The responses were exported to Excel where the IC50 curves were plotted (percent inhibition versus concentration) and IC50 values calculated for each test substrate and enzyme using XL-fit.

Chain of human CB1 receptor expressed in transfected CHO cells (P21554 whole entry): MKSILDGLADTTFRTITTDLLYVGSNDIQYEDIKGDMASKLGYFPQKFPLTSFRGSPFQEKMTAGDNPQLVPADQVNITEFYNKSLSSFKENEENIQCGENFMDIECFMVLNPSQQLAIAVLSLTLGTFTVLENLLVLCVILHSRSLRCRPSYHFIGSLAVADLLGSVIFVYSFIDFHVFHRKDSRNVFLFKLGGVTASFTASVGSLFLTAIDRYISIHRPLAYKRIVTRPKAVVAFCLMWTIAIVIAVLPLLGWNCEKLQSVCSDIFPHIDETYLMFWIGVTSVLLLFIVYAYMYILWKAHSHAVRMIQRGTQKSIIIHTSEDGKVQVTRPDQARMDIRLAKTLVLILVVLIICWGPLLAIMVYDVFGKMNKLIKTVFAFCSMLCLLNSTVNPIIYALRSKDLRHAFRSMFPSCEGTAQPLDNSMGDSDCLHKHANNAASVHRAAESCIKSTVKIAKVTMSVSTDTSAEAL
Chain of recombinant 17bHSD4 (M1-N311) (P51659 1-311): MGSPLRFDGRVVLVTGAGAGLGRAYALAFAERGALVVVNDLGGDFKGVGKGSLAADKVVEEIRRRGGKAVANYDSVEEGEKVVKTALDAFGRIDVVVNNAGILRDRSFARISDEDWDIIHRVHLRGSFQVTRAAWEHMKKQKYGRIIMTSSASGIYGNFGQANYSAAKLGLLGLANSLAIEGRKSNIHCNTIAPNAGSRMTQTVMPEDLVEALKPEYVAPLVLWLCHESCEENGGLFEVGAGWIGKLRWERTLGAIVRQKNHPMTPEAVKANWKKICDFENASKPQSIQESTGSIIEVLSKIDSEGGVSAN
Chain of recombinant 17bHSD13 (N2-K300) (Q7Z5P4 2-300): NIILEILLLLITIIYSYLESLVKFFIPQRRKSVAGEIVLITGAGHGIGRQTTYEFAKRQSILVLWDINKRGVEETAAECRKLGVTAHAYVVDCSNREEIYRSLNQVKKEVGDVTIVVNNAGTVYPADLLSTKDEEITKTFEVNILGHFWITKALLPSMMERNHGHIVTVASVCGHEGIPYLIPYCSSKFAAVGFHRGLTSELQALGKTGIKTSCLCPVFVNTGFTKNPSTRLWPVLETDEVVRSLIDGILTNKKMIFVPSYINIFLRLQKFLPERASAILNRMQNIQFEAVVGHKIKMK
Chain of over expressed HSD17β13 in HEK293S cells (Q7Z5P4 20-300): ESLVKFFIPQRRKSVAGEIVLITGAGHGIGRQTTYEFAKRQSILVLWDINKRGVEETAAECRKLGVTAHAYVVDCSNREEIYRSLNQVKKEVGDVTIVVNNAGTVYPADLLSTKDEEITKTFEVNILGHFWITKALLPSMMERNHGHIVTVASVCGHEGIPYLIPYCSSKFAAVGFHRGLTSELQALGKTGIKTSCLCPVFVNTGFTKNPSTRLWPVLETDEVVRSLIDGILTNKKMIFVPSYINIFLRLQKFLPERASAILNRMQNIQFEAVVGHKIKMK

- IC50 [1]: 0.317 µM
- IC50 [2]: 21.7 µM
- IC50 [3]: 3.38 µM
- EC50 [5]: 9.3 µM
- IC50 [6]: 3.4 µM
Structure (SMILES): N#Cc1cccc(C2CN(C(=O)c3noc(-c4cc(F)c(F)c(O)c4F)n3)C2)c1 [Example 85, 3-(1-(5-(2,4,5-Trifluoro-3-hydroxyphenyl)-1,2,4-oxadiazole-3-carbonyl)azetidin-3-yl)benzonitrile]
- Assay A: Human Heps Met Clint GMean CLint (μl/min/1E6) [4]: 14.1 μl/min/1E6
